Key:
hPDE8B [1] = target: T1, hPDE8B (Homo sapiens, UniProt O95263); experiment: PDE8 inhibition assay (IC50), Experimental Example 3; type: biochemical; conditions: hPDE8B; read-out: PDE inhibition assay IC50, PDE8
T1 construct: purchased SB Drug Discovery
Method in brief: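 Recombinant human enzymes incubated with compound and 3 nmol/L cAMP (final) in Tris-HCl pH 7.5 buffer with MgCl2, BSA, DTT, 2% DMSO final, 60 min at room temperature. Residual cAMP measured by TR-FRET (LANCE Ultra), reaction stopped with 0.5 mmol/L IBMX. IC50 from inhibition relative to no-compound (0%) and no-enzyme (100%) controls.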

hPDE8B [2] = target: T1, hPDE8B; experiment: PDE7 selectivity test (Ki value), Experimental Example 2: hPDE8B; type: biochemical; conditions: Ki from IC50 by Cheng-Prusoff, read-out: PDE inhibition constant Ki, PDE8
Protocol: hPDE1A, hPDE2A, hPDE3A, hPDE4D, hPDE5A, and hPDE8B were purchased from SB Drug Discovery. hPDE7B was isolated by the same method as [Method for preparing samples 1], and hPDE9A, hPDE10A, and hPDE11A were isolated by the same method as hPDE7B, i.e., isolated from COS-7 cells transfected with plasmids encoding each PDE. PDE6 was purified and isolated from bovine retina (bovine PDE6).
Prior to the calculation of Ki value, Km value of each PDE against cAMP or cGMP was calculated. Each PDE diluted with an assay buffer so that it would have an appropriate enzyme activity, and six or more concentrations of cAMP or cGMP were reacted at room temperature for 60 minutes. Regarding PDE using cAMP as a substrate, PDELight (trademark) HTS cAMP phosphodiesterase Kit (Lonza) was used to measure a degradation product, 5′-AMP. Also, regarding PDE using cGMP as a substrate, […] of perchloric acid was added to the mixture to stop the reaction, and the resulting mixture was subjected to LC-MS/MS to measure the residual cGMP concentration. The amount of degraded substrate in each substrate concentration was calculated, the concentration of the added substrate was plotted on the horizontal axis, the amount of degraded substrate was plotted on the vertical axis, and Km value was calculated by non-linear regression on the basis of Michaelis-Menten equation. Km value (substrate) of each PDE was hPDE1A: 4.3 (cGMP), hPDE2A: 36 (cAMP), hPDE3A: 0.11 (cAMP), hPDE4D: 0.90 (cAMP), hPDE5A: 3.9 (cGMP), bovine PDE6:9.8 (cGMP), hPDE7B: 0.015 (cAMP), hPDE8B: 0.63 (cAMP), hPDE9A: 0.0037 (cGMP), hPDE10A: 0.051 (cAMP), and hPDE11A: 1.4 (cAMP) μmol/L, respectively.
Next, PDE inhibition assay of a compound was carried out using each PDE. The PDE inhibition assay was basically carried out by the same enzyme reaction method as [Assay procedure 1], and the degraded amount of cAMP or cGMP was measured by the same method as [Assay procedure 2]. In the assay, a concentration approximated to Km value of each PDE against cAMP or cGMP was used as a substrate concentration. Meanwhile, regarding hPDE5A, hPDE8B, and hPDE9A, IMAP (trademark) FP Phosphodiesterase Evaluation Assay Kit (Molecular Devices) was used to measure the degradation of FAM-cAMP or FAM-cGMP by fluorescence depolarization technique.
Each compound was evaluated at six or more concentrations with common ratio 10. Each inhibition rate was calculated according to <Method for data calculation 1>, and then each IC50 value was calculated by sigmoid regression. The resulting IC50 value was used in the following Cheng-Prusoff equation to calculate each Ki value. Ki=IC50/(1+[S]/Km), wherein [S] represents a substrate concentration used

T1 sequence (O95263 whole entry): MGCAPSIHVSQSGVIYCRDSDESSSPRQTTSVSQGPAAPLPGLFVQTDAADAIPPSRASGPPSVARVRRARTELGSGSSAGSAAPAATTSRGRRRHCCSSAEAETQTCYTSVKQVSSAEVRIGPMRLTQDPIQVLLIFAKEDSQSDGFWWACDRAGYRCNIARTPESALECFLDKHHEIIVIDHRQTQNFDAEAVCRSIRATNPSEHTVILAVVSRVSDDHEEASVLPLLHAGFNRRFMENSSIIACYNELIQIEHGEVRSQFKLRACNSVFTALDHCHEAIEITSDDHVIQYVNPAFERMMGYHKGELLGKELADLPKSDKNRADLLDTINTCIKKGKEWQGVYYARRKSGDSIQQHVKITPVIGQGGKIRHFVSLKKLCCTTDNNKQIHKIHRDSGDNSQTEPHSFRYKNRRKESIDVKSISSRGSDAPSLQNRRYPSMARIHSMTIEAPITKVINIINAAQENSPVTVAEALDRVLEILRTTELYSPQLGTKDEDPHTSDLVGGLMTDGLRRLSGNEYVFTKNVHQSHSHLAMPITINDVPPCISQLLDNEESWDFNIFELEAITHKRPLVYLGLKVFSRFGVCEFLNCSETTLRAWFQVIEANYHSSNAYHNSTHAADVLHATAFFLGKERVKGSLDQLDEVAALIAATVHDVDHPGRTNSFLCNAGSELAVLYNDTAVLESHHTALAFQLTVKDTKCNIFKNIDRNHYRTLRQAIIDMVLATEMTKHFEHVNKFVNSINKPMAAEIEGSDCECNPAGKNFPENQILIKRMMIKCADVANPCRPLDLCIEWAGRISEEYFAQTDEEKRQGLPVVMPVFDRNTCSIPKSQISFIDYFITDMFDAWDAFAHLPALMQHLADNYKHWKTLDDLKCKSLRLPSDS

| SMILES | IC50 (hPDE8B [1]) | Ki (hPDE8B [2]) |
| --- | --- | --- |
| CC1CCCCC1n1nnc2c(N)ncnc21 (single isomer, unassigned) [Example 191, 3-(cis-2-methylcyclohexyl)-3H-[1,2,3]triazolo[4,5-d]pyrimidin-7-amine] | 5.33 µM | 5.3 µM |
| Nc1ncnc2c1nnn2C1CCCCC1 [Example 3, 3-cyclohexyl-3H-[1,2,3]triazolo[4,5-d]pyrimidin-7-amine] | 0.7 µM | 0.77 µM |
| Cc1nc(N)c2nnn(C3CCCCC3)c2n1 [Example 4] |  | 0.085 µM |
| Nc1nccn2c(C3CCCCC3)nnc12 [Example 141, 3-cyclohexyl[1,2,4]triazolo[4,3-a]pyrazin-8-amine] | 1.77 µM | 1.4 µM |
| C[C@@H]1CCC[C@H](c2nnc3c(N)nccn23)C1 [Example 204, 3-[(1S,3R)-3-methylcyclohexyl][1,2,4]triazolo[4,3-a]pyrazin-8-amine] | 1.75 µM | 1.4 µM |

Source: US20190185479A1, “BICYCLIC NITROGENATED HETEROCYCLIC COMPOUND” (MITSUBISHI TANABE PHARMA CORPORATION, priority 2016, published 2019)
